Results published in patent publication US20240174723A1, “STAPLED ANTIMICROBIAL PEPTIDES (STAMPS) AND USES THEREOF” (Lytica Therapeutics, Inc., priority 2021, published 2024).

Assays:
S. aureus = type: cell-based, Staphylococcus aureus
Procedure, shortened: (§1)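 Broth microdilution adapted from CLSI in Mueller-Hinton broth or cation-adjusted MHB. Overnight 37 °C cultures were regrown 3-4 h, then added to serially diluted peptide at a final 5×10^5 CFU/ml. After 20-24 h at 37 °C, MIC was the lowest peptide concentration with no visible growth.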

A. baumannii = type: cell-based, Acinetobacter baumannii
Procedure, shortened: as §1

[1] = tested on: Human Liver Cells (HepG2); assay: in vitro; type: cell-based; conditions: 48 hours
Procedure, shortened: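 HepG2 cells in EMEM with 10% FBS, allowed 4 h to attach, then exposed to serial dilutions of StAMPs (from a 5 mg/mL water stock) or vehicle. After 48 h at 37 °C, viability read by CellTiter-Glo luminescence.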

E. coli = type: cell-based, Escherichia coli
Procedure, shortened: as §1

[2] = tested on: Human Renal Proximal Tubule Epithelial Cells (RPTEC); assay: in vitro; type: cell-based; conditions: 90 min
Procedure, shortened: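 RPTEC or HepG2 cells plated overnight, given fresh media, then serial StAMP dilutions (from 5 mg/mL water stock) or vehicle at 37 °C. Cytotoxicity read as LDH release into media, absorbance 490 nm; renal toxicity after 90 min, liver toxicity after 48 h incubation.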

- Minimum Inhibitory Concentration (MIC) S. aureus (S. aureus): 32 µg/mL
- Minimum Inhibitory Concentration (MIC) A. baumannii (A. baumannii): 2 µg/mL
- Minimum Inhibitory Concentration (MIC) E. coli (E. coli): 4 µg/mL
Structure (SMILES): CC(C)[C@@H]1NC(=O)[C@@](C)(NC(=O)[C@H](C)NC(=O)[C@H](CCCCN)NC(=O)CNC(=O)[C@H](Cc2ccccc2)NC(=O)[C@H](CCCCN)NC(=O)[C@H](CCCCN)NC(=O)[C@H](CCCCN)NC(=O)[C@H](CO)NC(=O)[C@H](Cc2c[nH]cn2)NC(=O)[C@]2(C)CCCC=CCCC[C@](C)(NC(=O)CN)C(=O)NCC(=O)N[C@@H](CCCCN)C(=O)N[C@@H](Cc3ccccc3)C(=O)N2)CCCC=CCCC[C@@](C)(C(=O)N[C@@H](C)C(=O)N[C@@H](CCCCN)C(=O)N[C@@H](CCCCN)C(N)=O)NC(=O)[C@H](CCC(=O)O)NC(=O)[C@H](Cc2c[nH]c3ccccc23)NC1=O (single isomer, unassigned) [compound 65]
- Inhibitory Concentration at 50% Cytotoxicity (IC50) Human Liver Cells (HepG2) [1]: 150 µg/mL
- Inhibitory Concentration at 50% Cytotoxicity (IC50) Human Renal Proximal Tubule Epithelial Cells (RPTEC) [2]: 110 µg/mL
